Data published in patent US9993494B2, “Compositions and methods for treating fibrotic disease” (eFFECTOR Therapeutics, Inc., priority 2014, dated 2018).

Tested on: normal human lung fibroblasts
Test: Ribosomal profiling: translational efficiency in TGFβ-treated fibroblasts
Type: cell-based
Settings: TGFβ-treated fibroblasts
Procedure: Ribosomal profiling allows for measurement of changes in transcription and translation on a genome-wide basis accompanying TGFβ-dependent transformation of fibroblasts to myofibroblasts. Ribosomal profiles of the TGFβ-treated fibroblasts from Example 1 (about 6×10^6 cells/10 cm plate) were prepared and analyzed for changes in translational efficiencies with respect to potential disease-associated cellular changes accompanying this TGFβ-induced transformation.
Briefly, cells were washed with cold PBS supplemented with cycloheximide and lysed with 1× mammalian cell lysis buffer for 10 minutes on ice. Lysates were clarified by centrifugation for 10 minutes at 14,000 rpm and supernatants were collected. Cell lysates were processed to generate ribosomal protected fragments and total mRNA according to the instructions included with the ARTseq Ribosome Profiling Kit (Illumina, San Diego, Calif.). Sequencing of total RNA (RNA) and of ribosome-protected fragments of RNA (RPF) was carried out using RNA-Seq methodology according to the manufacturer's instructions (Illumina). To analyze the ribosomal profiles, RNA-Seq reads were processed with tools from the FASTX-Toolkit (fastq_quality_trimmer, fastx_clipper and fastx_trimmer). Unprocessed and processed reads were evaluated for a variety of quality measures using FastQC, and processed reads were mapped to the human genome using TopHat (see, e.g., Trapnell et al., Bioinformatics 25:1105, 2009). Gene-by-gene assessment of the number of fragments strictly and uniquely mapping to the coding region of each gene was conducted using HTSeq-count, a component of the HTSeq package. […] Genes with low counts in either RPF or RNA were excluded from differential analyses. Pathway and network analyses of differential data were conducted using Ingenuity Pathway Analysis (IPA).

With `Cc1cc(C2CCCCC2)n(O)c(=O)c1.NCCO` [CPX, ciclopirox oloamine] the “effect in renormalizing the translational profile of the gene” value (gene RPS6 (ENSG00000137154)) was “− (− = <0.9)”, the “effect in renormalizing the translational profile of the gene” value (gene RPS6KA5 (ENSG00000100784)) was “− (− = <0.9)” and the “effect in renormalizing the translational profile of the gene” value (gene RPS7 (ENSG00000171863)) was “− (− = <0.9)”. The “effect in renormalizing the translational profile of the gene” value (gene RPS8 (ENSG00000142937)) was “− (− = <0.9)”, the “effect in renormalizing the translational profile of the gene” value (gene RPS9 (ENSG00000170889)) was “− (− = <0.9)” and the “effect in renormalizing the translational profile of the gene” value (gene RPS10 (ENSG00000124614)) was “− (− = <0.9)”. The “effect in renormalizing the translational profile of the gene” value (gene RPS11 (ENSG00000142534)) was “− (− = <0.9)”, the “effect in renormalizing the translational profile of the gene” value (gene RPS12 (ENSG00000112306)) was “− (− = <0.9)” and the “effect in renormalizing the translational profile of the gene” value (gene RPS13 (ENSG00000110700)) was “− (− = <0.9)”. For the same compound, the “effect in renormalizing the translational profile of the gene” value (gene RPS14 (ENSG00000164587)) was “− (− = <0.9)”, the “effect in renormalizing the translational profile of the gene” value (gene RPS15 (ENSG00000115268)) was “− (− = <0.9)” and the “effect in renormalizing the translational profile of the gene” value (gene RPS15A (ENSG00000134419)) was “− (− = <0.9)”. The “effect in renormalizing the translational profile of the gene” value (gene RPS16 (ENSG00000105193)) was “− (− = <0.9)”, the “effect in renormalizing the translational profile of the gene” value (gene RPS18 (ENSG00000231500)) was “− (− = <0.9)” and the “effect in renormalizing the translational profile of the gene” value (gene RPS19 (ENSG00000105372)) was “− (− = <0.9)”. For the same compound, the “effect in renormalizing the translational profile of the gene” value (gene RPS20 (ENSG00000008988)) was “− (− = <0.9)”, the “effect in renormalizing the translational profile of the gene” value (gene RPS21 (ENSG00000171858)) was “− (− = <0.9)” and the “effect in renormalizing the translational profile of the gene” value (gene RPS23 (ENSG00000186468)) was “− (− = <0.9)”. For the same compound, the “effect in renormalizing the translational profile of the gene” value (gene RPS24 (ENSG00000138326)) was “− (− = <0.9)”, the “effect in renormalizing the translational profile of the gene” value (gene RPS25 (ENSG00000118181)) was “− (− = <0.9)” and the “effect in renormalizing the translational profile of the gene” value (gene RPS26 (ENSG00000197728)) was “− (− = <0.9)”. For the same compound, the “effect in renormalizing the translational profile of the gene” value (gene RPS27 (ENSG00000177954)) was “− (− = <0.9)”, the “effect in renormalizing the translational profile of the gene” value (gene RPS27A (ENSG00000143947)) was “− (− = <0.9)” and the “effect in renormalizing the translational profile of the gene” value (gene RPS28 (ENSG00000233927)) was “+ (+ = 0.9 to 1.5)”. The “effect in renormalizing the translational profile of the gene” value (gene RPS29 (ENSG00000213741)) was “− (− = <0.9)”, the “effect in renormalizing the translational profile of the gene” value (gene RPSA (ENSG00000168028)) was “− (− = <0.9)” and the “effect in renormalizing the translational profile of the gene” value (gene RTN2 (ENSG00000125744)) was “− (− = <0.9)”. For the same compound, the “effect in renormalizing the translational profile of the gene” value (gene SEMA3A (ENSG00000075213)) was “− (− = <0.9)”, the “effect in renormalizing the translational profile of the gene” value (gene SGIP1 (ENSG00000118473)) was “− (− = <0.9)” and the “effect in renormalizing the translational profile of the gene” value (gene SH3BGR (ENSG00000185437)) was “− (− = <0.9)”. For the same compound, the “effect in renormalizing the translational profile of the gene” value (gene SHC3 (ENSG00000148082)) was “+++ (+++ = >2.0)”, the “effect in renormalizing the translational profile of the gene” value (gene SLC2A12 (ENSG00000146411)) was “− (− = <0.9)” and the “effect in renormalizing the translational profile of the gene” value (gene SLC7A7 (ENSG00000155465)) was “− (− = <0.9)”. For the same compound, the “effect in renormalizing the translational profile of the gene” value (gene SLC15A3 (ENSG00000110446)) was “− (− = <0.9)”, the “effect in renormalizing the translational profile of the gene” value (gene SLC25A6 (ENSG00000169100)) was “− (− = <0.9)” and the “effect in renormalizing the translational profile of the gene” value (gene SLC40A1 (ENSG00000138449)) was “++ (++ = 1.5 to 2.0)”. The “effect in renormalizing the translational profile of the gene” value (gene SMO (ENSG00000128602)) was “− (− = <0.9)”, the “effect in renormalizing the translational profile of the gene” value (gene SNRPA (ENSG00000077312)) was “− (− = <0.9)” and the “effect in renormalizing the translational profile of the gene” value (gene SOX5 (ENSG00000134532)) was “− (− = <0.9)”. The “effect in renormalizing the translational profile of the gene” value (gene SOX6 (ENSG00000110693)) was “− (− = <0.9)”, the “effect in renormalizing the translational profile of the gene” value (gene SPATA6 (ENSG00000132122)) was “− (− = <0.9)” and the “effect in renormalizing the translational profile of the gene” value (gene STAMBPL1 (ENSG00000138134)) was “+ (+ = 0.9 to 1.5)”. For the same compound, the “effect in renormalizing the translational profile of the gene” value (gene STS (ENSG00000101846)) was “− (− = <0.9)”, the “effect in renormalizing the translational profile of the gene” value (gene SYNE2 (ENSG00000054654)) was “− (− = <0.9)” and the “effect in renormalizing the translational profile of the gene” value (gene TAF1D (ENSG00000166012)) was “− (− = <0.9)”. The “effect in renormalizing the translational profile of the gene” value (gene TDG (ENSG00000139372)) was “− (− = <0.9)”, the “effect in renormalizing the translational profile of the gene” value (gene TEN1 (ENSG00000257949)) was “− (− = <0.9)” and the “effect in renormalizing the translational profile of the gene” value (gene TET2 (ENSG00000168769)) was “− (− = <0.9)”. For the same compound, the “effect in renormalizing the translational profile of the gene” value (gene TET3 (ENSG00000187605)) was “− (− = <0.9)”, the “effect in renormalizing the translational profile of the gene” value (gene TGFBI (ENSG00000120708)) was “− (− = <0.9)” and the “effect in renormalizing the translational profile of the gene” value (gene THBS3 (ENSG00000169231)) was “− (− = <0.9)”. For the same compound, the “effect in renormalizing the translational profile of the gene” value (gene THG1L (ENSG00000113272)) was “− (− = <0.9)”, the “effect in renormalizing the translational profile of the gene” value (gene TIMM9 (ENSG00000100575)) was “− (− = <0.9)” and the “effect in renormalizing the translational profile of the gene” value (gene TKT (ENSG00000163931)) was “− (− = <0.9)”. The “effect in renormalizing the translational profile of the gene” value (gene TMTC1 (ENSG00000133687)) was “− (− = <0.9)”, the “effect in renormalizing the translational profile of the gene” value (gene TOMM7 (ENSG00000196683)) was “+ (+ = 0.9 to 1.5)” and the “effect in renormalizing the translational profile of the gene” value (gene TOP2A (ENSG00000131747)) was “− (− = <0.9)”. For the same compound, the “effect in renormalizing the translational profile of the gene” value (gene TPGS1 (ENSG00000141933)) was “− (− = <0.9)”, the “effect in renormalizing the translational profile of the gene” value (gene TPM2 (ENSG00000198467)) was “− (− = <0.9)” and the “effect in renormalizing the translational profile of the gene” value (gene TPT1 (ENSG00000133112)) was “− (− = <0.9)”. For the same compound, the “effect in renormalizing the translational profile of the gene” value (gene TRERF1 (ENSG00000124496)) was “− (− = <0.9)”, the “effect in renormalizing the translational profile of the gene” value (gene UBA52 (ENSG00000221983)) was “− (− = <0.9)” and the “effect in renormalizing the translational profile of the gene” value (gene UQCRB (ENSG00000156467)) was “− (− = <0.9)”. The “effect in renormalizing the translational profile of the gene” value (gene UTRN (ENSG00000152818)) was “− (− = <0.9)”, the “effect in renormalizing the translational profile of the gene” value (gene VIM (ENSG00000026025)) was “− (− = <0.9)” and the “effect in renormalizing the translational profile of the gene” value (gene ZNF581 (ENSG00000171425)) was “− (− = <0.9)”.
